# In publication PMC7774954, “Interactomic affinity profiling by holdup assay: Acetylation and distal residues impact the PDZome-binding specificity of PTEN phosphatase” (PLoS ONE, 2020):
# *1 amine or outer side, *2 acyl side, *3 side chain or, on linkers, in order; H or OH if unused. Where a SMILES comes first, the peptide text is derived from it. The star is where a group is joined. X1 = O=C(CCCC[C@@H]1SC[C@@H]2NC(=O)N[C@@H]21)NCCCOCCOCCOCCCN*; Suc = O=C(CCC(=O)[*:2])[*:1]
# What was measured:
# [1] = tested on: GIPC1-1; assay: Holdup assay, GIPC1-1; assay type: binding, human
# [2] = tested on: CNKSR3-1; assay: Holdup assay, CNKSR3-1; assay type: binding, human
# [3] = biological target: INADL-7 (Homo sapiens, UniProt Q8NI35); assay: Holdup assay, INADL-7; assay type: binding
# [4] = tested on: INTU-1; assay: Holdup assay, INTU-1; assay type: binding, human
# [5] = tested on: ARHGAP23-1; assay: Holdup assay, ARHGAP23-1; assay type: binding, human
# [6] = biological target: T1, SCRIB-3 (Homo sapiens, UniProt Q14160); assay: Holdup assay, SCRIB-3; assay type: binding; details: for BI: PDZ domain SCRIB-3
# T1 construct: Representative holdup data recorded for three PDZ domains (MAST2-1, HTRA1-1, SCRIB-3); made in house; host or cells: E. coli
# T1 sequence (Q14160 1004-1093 limits assumed): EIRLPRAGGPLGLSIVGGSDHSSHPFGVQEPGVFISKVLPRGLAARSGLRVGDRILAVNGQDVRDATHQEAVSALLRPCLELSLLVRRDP
# Experimental: (§1) The holdup assay was performed on a Tecan freedom Evo200 robot with 384-well plates in singlicate for the three 11-mer PTEN variants and the 13-mer PTEN peptide as described in [31, 32]. Briefly, prior to interaction assay, 2.5 μL of streptavidin resin was saturated in each well with 20 μL of biotinylated PBM peptides (42 μM) and then washed twice with an excess of free biotin, while the reference resin was incubated only with biotin. Right before the holdup experiment, the PDZ library was spiked with an internal standard of lysozyme. Then, the biotin- or PBM-saturated resin was incubated, each in a distinct well of a 384-well plate, with complete cell lysates diluted so that the concentration of the tag-PDZ present in the crude extract is adjusted at 4 μM. After a sufficient time to reach complex equilibrium (15 min.), a fast and mild filtration step is performed and the tag-PDZ concentrations were measured by capillary electrophoresis instrument (LabChip GXII, PerkinElmer, Massachusets, USA). Standard markers were used to convert migration time into molecular weight on the LabChip software and inappropriate molecular weight markers were corrected or excluded.
# (§2) For filtered data, the BI was extracted with the following equation (Eq 1) that estimates the depleted fraction after superimposition of the sample and reference electropherograms: BI=Iref−Ilig/Iref (1) where Iref and Ilig are the intensities of the tag-PDZ peaks measured, for each PDZ domain/PBM peptide interaction pair, in the biotin reference and the PBM electropherograms, respectively.
# [7] = biological target: T2, MAGI2 PDZ 3 (Homo sapiens, UniProt Q86UL8); assay: Holdup assay, MAGI2-3; assay type: binding; details: for BI: MAGI2-3
# T2 construct: made in house; host or cells: E. coli
# Experimental: as §1, §2
# (§3) BIs were transformed into dissociation constants (KD) using the following formula: KD=([PDZtot]−BI·[PDZtot])·([PBMtot]−BI·[PDZtot])/BI·[PDZtot] (2) where [PDZtot] and [PBMtot] correspond to the total concentrations of the PDZ domain (usually around 4 μM) and the PBM peptide used during the assay. Since the PBMtot concentration in the resin during the holdup assay parameter may differ from one peptide to another and remains unknown, it is impossible to directly convert BI values into KD constants. We systematically determined the KD constants for a subset of PDZ/PBM pairs by competitive FP. […] For each PBM, the average peptide concentration was calculated after outlier rejection based on the absolute distances from the median as compared to three times the standard deviation (3σ rule), with never more than 2 values rejected.
# [8] = tested on: MLLT4-1; assay: Holdup assay, MLLT4-1; assay type: binding, human
# [9] = tested on: DLG3-1; assay: Holdup assay, DLG3-1; assay type: binding, human
# [10] = tested on: FRMPD4-1; assay: Holdup assay, FRMPD4-1; assay type: binding, human
# [11] = tested on: GRIP1-4; assay: Holdup assay, GRIP1-4; assay type: binding, human
# [12] = tested on: IL16-3; assay: Holdup assay, IL16-3; assay type: binding, human
# [13] = tested on: LIN7B-1; assay: Holdup assay, LIN7B-1; assay type: binding, human
# [14] = tested on: GRIP2-3; assay: Holdup assay, GRIP2-3; assay type: binding, human
# [15] = tested on: APBA3-1; assay: Holdup assay, APBA3-1; assay type: binding, human
# [16] = tested on: INADL-10; assay: Holdup assay, INADL-10; assay type: binding, human
# [17] = tested on: FRMPD1-1; assay: Holdup assay, FRMPD1-1; assay type: binding, human
# [18] = tested on: APBA2-2; assay: Holdup assay, APBA2-2; assay type: binding, human
# [19] = tested on: DFNB31-2; assay: Holdup assay, DFNB31-2; assay type: binding, human
# [20] = tested on: MPDZ-1; assay: Holdup assay, MPDZ-1; assay type: binding, human
# [21] = biological target: MAGI1-5 (Homo sapiens, UniProt Q96QZ7); assay: Holdup assay, MAGI1-5; assay type: binding
# [22] = biological target: T3, MAGI1 PDZ 2 (Homo sapiens, UniProt Q96QZ7); assay: Holdup assay, MAGI1-2; assay type: binding
# T3 construct: made in house; host or cells: E. coli
# Experimental: as §1, §2
# BIs were transformed into dissociation constants (KD) using the following formula: KD=([PDZtot]−BI·[PDZtot])·([PBMtot]−BI·[PDZtot])/BI·[PDZtot] […] We systematically determined the KD constants for a subset of PDZ/PBM pairs by competitive FP. […] For each PBM, the average peptide concentration was calculated after outlier rejection based on the absolute distances from the median as compared to three times the standard deviation (3σ rule), with never more than 2 values rejected.
# [23] = biological target: LRRC7-1 (Homo sapiens, UniProt Q96NW7); assay: Holdup assay, LRRC7-1; assay type: binding
# [24] = tested on: INADL-2; assay: Holdup assay, INADL-2; assay type: binding, human
# [25] = tested on: MAGIX-1; assay: Holdup assay, MAGIX-1; assay type: binding, human
# [26] = biological target: T4, DLG1 PDZ 2 (Homo sapiens, UniProt Q12959); assay: Holdup assay, DLG1-2; assay type: binding; details: DLG1-2
# T4 construct: made in house; host or cells: E. coli
# Experimental: as §1, §2, §3
# [27] = biological target: T5, DLG4 PDZ 1 (Homo sapiens, UniProt P78352); assay: Holdup assay, DLG4-1; assay type: binding; details: DLG4-1
# T5 construct: made in house; host or cells: E. coli
# Experimental: as §1, §2, §3
# Sequence of INADL-7 (Q8NI35 whole entry): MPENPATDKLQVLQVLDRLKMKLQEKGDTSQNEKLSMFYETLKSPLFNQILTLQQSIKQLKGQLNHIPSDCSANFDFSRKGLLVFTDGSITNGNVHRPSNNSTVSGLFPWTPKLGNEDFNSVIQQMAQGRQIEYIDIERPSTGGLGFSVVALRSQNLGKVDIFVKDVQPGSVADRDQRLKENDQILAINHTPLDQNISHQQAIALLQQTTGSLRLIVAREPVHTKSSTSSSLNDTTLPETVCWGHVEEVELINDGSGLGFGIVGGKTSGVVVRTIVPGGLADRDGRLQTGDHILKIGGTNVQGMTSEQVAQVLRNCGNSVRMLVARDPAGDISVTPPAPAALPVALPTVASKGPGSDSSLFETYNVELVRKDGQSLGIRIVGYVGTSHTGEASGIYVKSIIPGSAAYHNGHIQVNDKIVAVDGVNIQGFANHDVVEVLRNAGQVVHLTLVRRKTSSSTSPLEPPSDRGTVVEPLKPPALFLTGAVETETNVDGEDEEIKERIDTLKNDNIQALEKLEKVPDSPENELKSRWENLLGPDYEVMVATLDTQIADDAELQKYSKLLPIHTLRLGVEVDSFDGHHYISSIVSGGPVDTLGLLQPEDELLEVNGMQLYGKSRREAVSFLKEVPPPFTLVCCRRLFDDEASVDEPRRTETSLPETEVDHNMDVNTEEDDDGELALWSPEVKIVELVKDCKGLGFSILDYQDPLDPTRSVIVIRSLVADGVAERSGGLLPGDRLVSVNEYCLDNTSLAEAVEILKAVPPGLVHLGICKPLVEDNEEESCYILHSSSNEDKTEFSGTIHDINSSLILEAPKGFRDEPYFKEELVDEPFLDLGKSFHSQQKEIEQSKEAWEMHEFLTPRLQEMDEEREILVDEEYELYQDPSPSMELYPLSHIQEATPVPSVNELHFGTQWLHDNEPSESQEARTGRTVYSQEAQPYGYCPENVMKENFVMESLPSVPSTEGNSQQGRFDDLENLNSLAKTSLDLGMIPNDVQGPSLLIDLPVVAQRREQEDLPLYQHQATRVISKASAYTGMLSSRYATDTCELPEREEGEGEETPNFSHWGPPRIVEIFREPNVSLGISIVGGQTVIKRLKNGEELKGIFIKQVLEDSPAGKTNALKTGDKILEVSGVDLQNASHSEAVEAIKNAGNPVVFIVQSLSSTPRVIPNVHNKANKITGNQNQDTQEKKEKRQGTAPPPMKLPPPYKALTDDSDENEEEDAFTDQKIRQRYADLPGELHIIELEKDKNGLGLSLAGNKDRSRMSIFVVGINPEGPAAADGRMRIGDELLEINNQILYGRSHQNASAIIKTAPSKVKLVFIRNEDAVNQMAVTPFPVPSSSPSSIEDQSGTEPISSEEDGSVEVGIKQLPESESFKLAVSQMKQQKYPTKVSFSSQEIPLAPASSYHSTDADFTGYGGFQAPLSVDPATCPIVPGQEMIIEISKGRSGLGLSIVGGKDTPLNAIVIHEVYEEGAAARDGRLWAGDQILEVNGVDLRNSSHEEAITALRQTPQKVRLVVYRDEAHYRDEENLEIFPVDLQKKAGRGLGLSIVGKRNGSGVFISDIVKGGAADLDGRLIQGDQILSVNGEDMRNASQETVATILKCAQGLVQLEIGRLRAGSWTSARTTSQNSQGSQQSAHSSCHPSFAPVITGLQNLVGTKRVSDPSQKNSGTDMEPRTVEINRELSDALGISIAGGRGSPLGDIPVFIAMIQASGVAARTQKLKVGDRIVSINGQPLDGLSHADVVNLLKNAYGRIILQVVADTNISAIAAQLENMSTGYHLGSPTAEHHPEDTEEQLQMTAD
# T2 sequence (Q86UL8 605-683 limits assumed): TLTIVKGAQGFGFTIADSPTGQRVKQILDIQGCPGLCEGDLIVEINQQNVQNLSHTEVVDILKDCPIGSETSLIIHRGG
# Sequence of LRRC7-1 (Q96NW7 with tags, fused parts or gaps): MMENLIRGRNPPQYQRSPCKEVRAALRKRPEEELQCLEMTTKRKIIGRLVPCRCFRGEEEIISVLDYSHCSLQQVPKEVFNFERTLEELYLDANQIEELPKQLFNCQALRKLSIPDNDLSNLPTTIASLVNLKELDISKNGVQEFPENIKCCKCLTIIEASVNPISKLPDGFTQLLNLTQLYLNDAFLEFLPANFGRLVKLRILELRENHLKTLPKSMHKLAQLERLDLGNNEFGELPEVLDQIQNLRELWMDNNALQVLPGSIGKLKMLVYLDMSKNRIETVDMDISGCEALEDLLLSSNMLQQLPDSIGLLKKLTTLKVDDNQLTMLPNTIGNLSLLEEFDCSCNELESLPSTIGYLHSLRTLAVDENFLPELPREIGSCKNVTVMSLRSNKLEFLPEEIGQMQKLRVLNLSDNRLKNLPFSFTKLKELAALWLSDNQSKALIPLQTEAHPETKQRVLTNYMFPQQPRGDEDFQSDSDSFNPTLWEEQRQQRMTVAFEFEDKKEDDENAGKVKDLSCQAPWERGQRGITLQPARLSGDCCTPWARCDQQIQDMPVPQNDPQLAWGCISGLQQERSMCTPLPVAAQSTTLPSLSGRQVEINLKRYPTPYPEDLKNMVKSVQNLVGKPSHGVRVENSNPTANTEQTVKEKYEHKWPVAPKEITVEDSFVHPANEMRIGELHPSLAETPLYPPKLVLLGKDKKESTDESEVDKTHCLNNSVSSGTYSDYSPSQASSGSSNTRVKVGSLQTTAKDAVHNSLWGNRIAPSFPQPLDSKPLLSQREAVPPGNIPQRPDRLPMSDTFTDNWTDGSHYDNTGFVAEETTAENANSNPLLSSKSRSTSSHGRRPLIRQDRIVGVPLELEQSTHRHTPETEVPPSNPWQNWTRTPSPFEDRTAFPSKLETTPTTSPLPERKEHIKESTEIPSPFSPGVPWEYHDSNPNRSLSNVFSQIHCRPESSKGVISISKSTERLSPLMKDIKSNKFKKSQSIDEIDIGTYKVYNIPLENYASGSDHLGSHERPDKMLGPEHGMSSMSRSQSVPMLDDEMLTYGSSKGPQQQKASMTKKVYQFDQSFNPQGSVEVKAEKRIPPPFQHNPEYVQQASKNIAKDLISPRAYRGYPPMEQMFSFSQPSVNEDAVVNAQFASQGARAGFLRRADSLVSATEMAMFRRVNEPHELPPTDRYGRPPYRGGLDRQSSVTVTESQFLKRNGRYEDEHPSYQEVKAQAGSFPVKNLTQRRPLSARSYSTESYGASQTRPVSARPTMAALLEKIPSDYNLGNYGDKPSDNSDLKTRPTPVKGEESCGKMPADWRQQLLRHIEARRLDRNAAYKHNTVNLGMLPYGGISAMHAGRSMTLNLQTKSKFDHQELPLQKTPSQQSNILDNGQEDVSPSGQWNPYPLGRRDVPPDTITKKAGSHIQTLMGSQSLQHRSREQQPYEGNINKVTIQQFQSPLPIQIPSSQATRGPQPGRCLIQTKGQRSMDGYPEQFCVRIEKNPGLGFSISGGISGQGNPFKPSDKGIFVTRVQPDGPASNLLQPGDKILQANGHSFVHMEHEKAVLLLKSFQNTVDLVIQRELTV
# Sequence of MAGI1-5 (Q96QZ7 970-1066): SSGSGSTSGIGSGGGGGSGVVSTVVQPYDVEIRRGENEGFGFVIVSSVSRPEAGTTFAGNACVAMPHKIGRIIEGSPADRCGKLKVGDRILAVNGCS
# T5 sequence (P78352 65-151): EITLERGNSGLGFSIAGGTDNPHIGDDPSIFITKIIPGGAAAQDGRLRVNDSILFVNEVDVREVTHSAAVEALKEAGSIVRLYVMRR
# T4 sequence (Q12959 319-405 limits assumed): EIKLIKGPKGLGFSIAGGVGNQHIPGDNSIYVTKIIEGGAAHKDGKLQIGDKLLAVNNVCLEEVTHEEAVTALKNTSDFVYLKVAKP
# T3 sequence (Q96QZ7 472-554 limits assumed): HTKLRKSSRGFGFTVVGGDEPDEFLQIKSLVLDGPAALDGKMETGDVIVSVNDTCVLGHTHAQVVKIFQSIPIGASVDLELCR
compound,measurement,setting,value
CC[C@H](C)[C@H](NC(=O)[C@H](CCC(N)=O)NC(=O)[C@@H](NC(=O)[C@H](Cc1c[nH]cn1)NC(=O)[C@H](CCC(N)=O)NC(=O)[C@H](CC(=O)O)NC(=O)[C@H](CCC(=O)O)NC(=O)[C@H](CC(=O)O)NC(=O)[C@H](Cc1ccccc1)NC(=O)[C@@H]1CCCN1C(=O)CCC(=O)NCCCOCCOCCOCCCNC(=O)CCCC[C@@H]1SC[C@@H]2NC(=O)N[C@@H]21)[C@@H](C)O)C(=O)N[C@H](C(=O)N[C@@H](CCCCN)C(=O)N[C@H](C(=O)O)C(C)C)[C@@H](C)O [PTEN_13] ({X1-Suc}-PFDEDQHTQITKV-OH),BI,[1],-0.02
same,BI,[2],0.002
same,BI,[3],0.07
same,LogKD,[3],3.826
same,BI,[4],-0.039
same,BI,[5],-0.062
same,BI,[6],-0.068
same,Kd,[7],30.1 µM
same,BI,[7],0.342
same,BI,[8],0.007
same,BI,[9],-0.03
same,BI,[10],-0.07
same,BI,[11],-0.039
same,BI,[12],-0.001
same,BI,[13],-0.079
same,BI,[14],0.027
same,BI,[15],0.015
same,BI,[16],-0.05
same,BI,[17],0.081
same,BI,[18],0.041
same,BI,[19],0.036
same,BI,[20],0.011
same,BI,[21],0.274
same,Kd,[21],42.1 µM
same,BI,[22],-0.017
same,BI,[23],0.042
same,LogKD,[23],3.826
same,BI,[24],0.043
same,BI,[25],0.049
same,BI,[26],0.168
same,BI,[27],0.077
CC[C@H](C)[C@H](NC(=O)[C@H](CCC(N)=O)NC(=O)[C@@H](NC(=O)[C@H](Cc1c[nH]cn1)NC(=O)[C@H](CCC(N)=O)NC(=O)[C@H](CC(=O)O)NC(=O)[C@H](CCC(=O)O)NC(=O)[C@H](CC(=O)O)NC(=O)CCC(=O)NCCCOCCOCCOCCCNC(=O)CCCC[C@@H]1SC[C@@H]2NC(=O)N[C@@H]21)[C@@H](C)O)C(=O)N[C@H](C(=O)N[C@@H](CCCCN)C(=O)N[C@H](C(=O)O)C(C)C)[C@@H](C)O [PTEN_11],BI,[1],0.042
same,LogKD,[1],3.519
same,BI,[2],0.028
same,LogKD,[2],3.519
same,BI,[3],0.136
same,BI,[4],-0.089
same,LogKD,[4],3.519
same,BI,[5],-0.109
same,LogKD,[5],3.519
same,BI,[6],0.058
same,BI (binding intensity),"[6]; SCRIB-3, holdup, singlicate",0.02
same,Kd,[7],47.2 µM
same,BI,[7],0.407
same,BI,[8],-0.038
same,LogKD,[8],3.519
same,BI,[9],0
same,LogKD,[9],3.519
same,BI,[10],-0.004
same,LogKD,[10],3.519
same,BI,[11],0.028
same,LogKD,[11],3.519
same,BI,[12],0.004
same,LogKD,[12],3.519
same,BI,[13],-0.046
same,LogKD,[13],3.519
same,BI,[14],0.054
same,LogKD,[14],3.519
same,BI,[15],-0.03
same,LogKD,[15],3.519
same,BI,[16],0.022
same,LogKD,[16],3.519
same,BI,[17],0.017
same,LogKD,[17],3.519
same,BI,[18],-0.01
same,LogKD,[18],3.519
same,BI,[19],-0.03
same,LogKD,[19],3.519
same,BI,[20],0.039
same,LogKD,[20],3.519
same,BI,[21],0.536
same,Kd,[21],27.6 µM
same,BI,[22],0.077
same,BI,[23],0.078
same,LogKD,[23],3.519
same,BI,[24],0.007
same,LogKD,[24],3.519
same,BI,[25],0.014
same,LogKD,[25],3.519
same,BI,[26],0.09
same,BI,[27],0.103
